Assays:
[1] = In vivo pharmacokinetics in mice, peroral, bioanalysis method 1 (total prodrug exposure); settings: oral dosing; for permeability in vivo: mice
Procedure: Blood was obtained via cardiac puncture and tissue dissected at 0 min, 15 min, 30 min, 1 h, 2 h, and 4 h post dose (n=3 per time point). Single time point studies were conducted at 30 min (N=3) following dosing. Plasma was harvested from blood by centrifugation. Mean concentration-time data was used for pharmacokinetic (PK) analysis. Non-compartmental-analysis module in WinNonlin® (version 5.3) was used to assess pharmacokinetic parameters. Peak plasma concentrations (Cmax) and time to Cmax (Tmax) were the observed values. Area under the curve (AUC) was calculated by log-linear (p.o.) trapezoidal rule to the end of sample collection (AUClast) and extrapolated to infinity (AUC0-∞) by dividing the last quantifiable concentration by the terminal disposition rate constant (ke). Terminal half-life (t1/2) was estimated from first order kinetics: t1/2=0.693/ke.
Briefly, prior to extraction, frozen samples were thawed on ice. For plasma extraction, 50 μL of the calibration standards or samples were transferred into silanized microcentrifuge tubes. Sample preparation involved a single liquid extraction by addition of 300 μL of methanol as extraction solution with internal standard (i.e., 5 μM of 2-PMSA in methanol), followed by vortexing for 30 s and then centrifugation at 12000 g for 10 min. Supernatant was transferred (˜250 μL) and evaporated to dryness at 40° C. under a gentle stream of nitrogen. The residue was reconstituted with 100 μL of derivatizing agent, n-butanol with 3N HCl, and samples were vortexed. The samples were heated at ˜60 OC in a shaking water bath for 30 min. At the end of 30 min, the derivatized samples were allowed to cool at room temperature and dried again for removal of derivatizing reagent, under a gentle stream of nitrogen. The residue was reconstituted in 100 μL of 30% acetonitrile in water v/v. The samples were vortexed and centrifuged again. ˜80 μL supernatant was transferred to a 250 μL polypropylene vial sealed with a Teflon cap and a volume of 10 μL was injected onto the ultra-performance liquid chromatography (UPLC) instrument for quantitative analysis. Chromatographic analysis was performed using an Accela™ ultra high-performance system consisting of an analytical pump, and an autosampler coupled with TSQ Vantage mass spectrometer (Thermo Fisher Scientific Inc., Waltham Mass.). […] The mobile phase used was composed of 0.1% formic acid in acetonitrile and 0.1% formic acid in H2O with gradient elution, starting with 20% (organic) linearly increasing to 65% up to 2.5 min, maintaining at 65% (2.5-3.5 min) and reequilibrating to 30% by 5 min. The total run time for each analyte was 5.0 min.

[2] = Metabolic stability in mouse liver microsomes; assay type: in vitro ADME; settings: 10 μM, 37° C.
Procedure: (§1) For metabolic stability, plasma (mouse, dog, monkey and human) and liver microsomes (mouse, dog, monkey and human) were used. For stability, prodrugs (10 μM) were spiked in each matrix and incubated in an orbital shaker at 37° C. At predetermined times (0, 30 and 60 min), 100 μL aliquots of the mixture in triplicate were removed and the reaction quenched by addition of three times the volume of ice cold acetonitrile spiked with the internal standard (losartan 5 μM). The samples were vortexed for 30 s and centrifuged 12000 g for 10 min. 50 μL supernatant diluted with 50 μL water was transferred to a 250 μL polypropylene vial sealed with a Teflon cap. Prodrug disappearance was monitored over time using a liquid chromatography and tandem mass spectrometry (LC/MS/MS) method as described below.
(§2) For LC/MS/MS, prodrugs were separated with Thermo Scientific Accela UPLC system coupled to Accela open autosampler on an Agilent C18 (100×2.1 mm id) UPLC column. The autosampler was temperature controlled and operating at 10° C. The mobile phase used for the chromatographic separation was composed of acetonitrile/water containing 0.1% formic acid and was run at a flow rate of 0.5 mL/minute for 4.5 minutes using gradient elution. The column effluent was monitored using TSQ Vantage triple-quadrupole mass spectrometric detector, equipped with an electrospray probe set in the positive ionization mode. Samples were introduced into the ionization source through a heated nebulized probe (350° C.).
(§3) For quantification of compound remaining, disappearance of prodrugs was measured from ratio of peak areas of analyte to IS. Percentage remaining was calculated in the following manner: […]

[3] = Metabolic stability in mouse liver S9; assay type: in vitro ADME; settings: Mouse S9, 10 μM, 37° C.
[4] = Chemical stability in HBSS buffer (pH 7.4) / simulated gastric fluid; assay type: physicochemical; settings: for Percentage remaining: HBSS, 10 μM, 37° C.; for chemical stability: chemical hydrolysis / HBSS buffer
Procedure: The chemical stability of prodrugs was evaluated using simulated gastric fluid (pH 1.2) and Hanks' Balanced Salt Solution (HBSS) buffer (pH 7.4). Briefly, prodrugs were spiked (10 μM) in respective solutions and incubated at 37° C. for 1 h. At predetermined time points (0, 30 and 60 min), aliquots of 100 μL were removed and diluted with 100 μL of water. Prodrug disappearance was monitored using the developed liquid chromatography and tandem mass spectrometry (LC/MS/MS) method described below.
as §2, §3

[5] = Metabolic stability in mouse plasma; assay type: in vitro ADME; settings: 10 μM, 37° C.
Procedure: as §1, §2, §3

[6] = Metabolic stability in human plasma; assay type: in vitro ADME; settings: 10 μM, 37° C.
Procedure: as §1, §2, §3

[7] = Metabolic stability in human liver microsomes; assay type: in vitro ADME; settings: 10 μM, 37° C.
Procedure: as §1, §2, §3

[8] = In vitro metabolic stability screen in plasma and liver subcellular fractions (results in words); assay type: in vitro ADME; settings: 60 min incubation
Procedure: as §1, §2
For quantification of compound remaining, disappearance of prodrugs was measured from ratio of peak areas of analyte to IS. Percentage remaining was calculated in the following manner:
In general, the prodrugs were screened by an in vitro metabolic stability screen, and if positive, followed by an in vivo single time point pharmacokinetic study, and in select cases, an in vivo full time course pharmacokinetic study (FIG. 3). In this Example, the four acidic functional groups in 2-PMPA were systematically capped. The carboxylic acids were first masked with simple alkyl esters (Compounds 1, 2, and 3). In vitro chemical and metabolic stability of the prodrugs then were conducted, following 60 min incubation in plasma stability screens for prodrugs.

| Structure (SMILES) | Percentage remaining ([2]; 0 min) [%] | Percentage remaining ([2]; 30 min) [%] | Percentage remaining ([2]; 60 min) [%] | chemical stability [4] | Percentage remaining ([5]; 0 min) [%] | Percentage remaining ([5]; 30 min) [%] | Percentage remaining ([5]; 60 min) [%] | other results |
| --- | --- | --- | --- | --- | --- | --- | --- | --- |
| CCCCCCCCCCOP(=O)(CC(CCC(=O)O)C(=O)OC)OCCCCCCCCCC (stereo not shown) [Compound 22, 4-{[Bis(decyloxy)phosphoryl]methyl}-5-methoxy-5-oxopentanoic acid] | – | – | – | – | – | – | – | permeability in vivo [1]: did not show a high permeability in vivo |
| COC(=O)CCC(CP(=O)(OCOC(=O)C(C)(C)C)OCOC(=O)C(C)(C)C)C(=O)OC (stereo not shown) [Compound 14] | 100 | 2 | 0 | fall apart easily even in HBSS buffer | 100 | 0 | 0 | Percentage remaining ([3]; 0 min): 100%; Percentage remaining ([3]; 30 min): 1%; Percentage remaining ([3]; 60 min): 0%; Percentage remaining ([4]; 0 min): 100%; Percentage remaining ([4]; 30 min): 46%; Percentage remaining ([4]; 60 min): 21%; permeability in vivo [1]: most permeable |
| CC(C)OC(=O)OC(C)OP(=O)(CC(CCC(=O)O)C(=O)OCC(=O)N(C)C)OC(C)OC(=O)OC(C)C (stereo not shown) [Compound 26] | 100 | 86 | 68 | – | 100 | 3 | 1 | Percentage remaining ([6]; 0 min): 100%; Percentage remaining ([6]; 30 min): 98%; Percentage remaining ([6]; 60 min): 92%; Percentage remaining ([7]; 0 min): 100%; Percentage remaining ([7]; 30 min): 92%; Percentage remaining ([7]; 60 min): 81% |
| CC(C)(C)C(=O)OCOP(=O)(CC(CCC(=O)O)C(=O)O)OCOC(=O)C(C)(C)C (stereo not shown) [Compound 5] | – | – | – | chemical instability | – | – | – | – |
| CCCCOC(=O)c1ccccc1OP(=O)(CC(CCC(=O)O)C(=O)OC)Oc1ccccc1C(=O)OCCCC (stereo not shown) [Compound 21, 4-({Bis[2-(butoxycarbonyl)phenoxy]phosphoryl}methyl)-5-methoxy-5-oxopentanoic acid] | – | – | – | – | – | – | – | permeability in vivo [1]: did not show a high permeability in vivo |
| CCCCOC(=O)c1ccccc1OP(=O)(CC(CCC(=O)OC)C(=O)OC)Oc1ccccc1C(=O)OCCCC (stereo not shown) [Compound 16, Dimethyl 2-({bis[2-(butoxycarbonyl)phenoxy]phosphoryl}methyl)pentanedioate] | 100 | 3 | 2 | stable in HBSS buffer | 100 | 3 | 1 | Percentage remaining ([3]; 0 min): 100%; Percentage remaining ([3]; 30 min): 1%; Percentage remaining ([3]; 60 min): 2%; Percentage remaining ([4]; 0 min): 100%; Percentage remaining ([4]; 30 min): 100%; Percentage remaining ([4]; 60 min): 95% |
| COC(=O)CCC(CP(=O)(OCOC(=O)C(C)(C)C)OCOC(=O)C(C)(C)C)C(=O)OCOC(=O)C(C)(C)C (stereo not shown) [Compound 11] | – | – | – | sufficient chemical stability | – | – | – | – |
| CCOC(=O)[C@H](Cc1ccccc1)NP(=O)(CC(CCC(=O)OC)C(=O)OC)N[C@@H](Cc1ccccc1)C(=O)OCC (stereo partly drawn) [Compound 17, Dimethyl 2-((bis(((S)-1-ethoxy-1-oxo-3-phenylpropan-2-yl)amino)phosphoryl)methyl)pentanedioate] | 100 | 2 | 0.1 | stable in HBSS buffer | 100 | 2 | 1 | Percentage remaining ([3]; 0 min): 100%; Percentage remaining ([3]; 30 min): 0%; Percentage remaining ([3]; 60 min): 0.1%; Percentage remaining ([4]; 0 min): 100%; Percentage remaining ([4]; 30 min): 93%; Percentage remaining ([4]; 60 min): 93% |
| CCCCCCCCCCCCCCCCOCCCOP(=O)(CC(CCC(=O)O)C(=O)O)OCCCOCCCCCCCCCCCCCCCC (stereo not shown) [Compound 12, 2-((Bis(3-(hexadecyloxy)propoxy)phosphoryl)methyl)pentanedioic acid] | – | – | – | sufficient chemical stability | – | – | – | – |
| COC(=O)C(CCC(=O)O)CP(=O)(O)O (stereo not shown) [Compound 9] | – | – | – | – | – | – | – | oral availability of prodrug [1]: good oral availability |
| CC(C)OC(=O)OCOP(=O)(CC(CCC(=O)O)C(=O)OCC(=O)N(C)C)OCOC(=O)OC(C)C (stereo not shown) [Compound 25] | 100 | 49 | 22 | – | 100 | 0 | 0 | Percentage remaining ([6]; 0 min): 100%; Percentage remaining ([6]; 30 min): 109%; Percentage remaining ([6]; 60 min): 76%; Percentage remaining ([7]; 0 min): 100%; Percentage remaining ([7]; 30 min): 80%; Percentage remaining ([7]; 60 min): 61% |
| COC(=O)C(CCC(=O)O)CP(=O)(OCOC(=O)C(C)(C)C)OCOC(=O)C(C)(C)C (stereo not shown) [Compound 8, 4-({Bis[(pivaloyloxy)methoxy]phosphoryl}methyl)-5-methoxy-5-oxopentanoic acid] | – | – | – | – | – | – | – | oral availability of prodrug [1]: good oral availability |
| CC(C)OC(=O)OCOP(=O)(CC(CCC(=O)O)C(=O)O)OCOC(=O)OC(C)C (stereo not shown) [Compound 4] | – | – | – | chemical instability | – | – | – | – |
| CCOCCOCCOCCOCCOCCOCCOP(=O)(CC(CCC(=O)OC)C(=O)OC)OCCOCCOCCOCCOCCOCCOCC (stereo not shown) [Compound 13, Dimethyl 2-((bis((3,6,9,12,15,18-hexaoxaicosyl)oxy)phosphoryl)methyl)pentanedioate] | 100 | 99 | 100 | – | 100 | 2 | 1 | in vitro metabolic stability [8]: too stable in some of the samples; Percentage remaining ([3]; 0 min): 100%; Percentage remaining ([3]; 30 min): 106%; Percentage remaining ([3]; 60 min): 100%; Percentage remaining ([4]; 0 min): 100%; Percentage remaining ([4]; 30 min): 99%; Percentage remaining ([4]; 60 min): 101% |
